Columns and labels:
[1] = test system: subjects with PFIC; assay: ItchRO(Obs) pruritus severity, MARCH-PFIC Phase 3 study; format: in vivo, human; conditions: for percentage of pruritus response (ItchRO(Obs) responders): Week 15 to Week 26
Protocol: The primary analysis was conducted in the intent-to-treat (ITT) population of subjects with documented biallelic mutations in ABCB11 (PFIC 2), based on standard-of-care genotyping (primary cohort criteria). Subjects with a predicted complete absence of bile salt excretion pump (BSEP) function based on the type of ABCB11 mutation (PFIC 2), as determined by a standard-of-care genotype, were excluded from the primary cohort and could enroll only in the supplemental cohort. Subjects with other PFIC subtypes (e.g., PFIC 1/3/4/5/6, or new PFIC mutation variants) or postsurgical subjects (e.g., after internal or external biliary diversion surgery or subjects with reversal of biliary diversion surgery) were enrolled in a separate supplemental cohort and evaluated as part of secondary and exploratory analyses.
Subjects in the primary cohort were randomized in a 1:1 ratio to receive maralixibat or placebo. Subjects in the supplemental cohort were randomized in a 1:1 ratio to receive maralixibat or placebo within the following subcohorts: a) PFIC 1; b) PFIC 3; c) all other supplemental cohort subjects. All subjects received study treatment in addition to standard-of-care therapy, including antipruritic concomitant treatment.
For subjects assigned to maralixibat, the Dose Escalation period consisted of the following weekly steps: Dose level 1, 150 μg/kg maralixibat BID for 1 week; Dose level 2, 300 μg/kg maralixibat BID for 1 week; Dose level 3, 450 μg/kg maralixibat BID for 1 week; Dose level 4, 600 μg/kg maralixibat BID for the remaining duration of the study.
Efficacy. Severity of pruritus was assessed using the Itch caregiver/patient reported outcome measure (ItchRO™) administered as a twice daily electronic diary. Caregivers for all subjects completed the Observer instrument: ItchRO(Obs). The ItchRO(Obs) was completed by the same caregiver for consistency, whenever possible. Only subjects ≥9 years of age at screening completed the patient instrument: ItchRO(Pt). […] Pruritus was assessed and recorded twice daily, via ItchRO, beginning with the day after the screening visit and every day throughout the duration of the study. The severity of pruritus was measured by the completion of the first question in the ItchRO(Obs) (how severe were your child's itch-related symptoms) or ItchRO(Pt) (how itchy did you feel). The frequency of pruritus was measured by completion of the third question in the ItchRO(Obs) (how much of the time was your child rubbing or scratching) or ItchRO(Pt) (how much of last night/today did feeling itchy make you rub or scratch). Caregivers and subjects rated the severity and frequency of pruritus using 5 choices to describe their itching condition. ItchRO(Pt) and ItchRO(Obs) have been previously described in Kamath, et al., “Development of a Novel Tool to Assess the Impact of Itching in Pediatric Cholestasis,” Patient, 11:69-82 (2018), which is hereby incorporated by reference in its entirety for all purposes.
For this study, the primary estimand is the improvement in pruritus measured as change from baseline in the average morning ItchRO(Obs) severity score in the maralixibat treatment group relative to the placebo group. The primary analysis on the primary efficacy endpoint was conducted in 1) participants with PFIC 2 who fulfill criteria for the primary cohort in the ITT population (non-truncated primary “B SEP cohort” or “Primary cohort” with N=31), 2) all PFIC participants (excluding the participants with prior history of surgery, heterozygous participants and unknown types, “All PFIC cohort” or “PFIC cohort” with N=64), and 3) all study participants cohort, including the participants with prior history of surgery, heterozygous participants and unknown types. A restricted maximum likelihood (REML)-based mixed-effects model for repeated measures […] was used as the primary analysis method. […]

[2] = test system: subjects with PFIC; assay: EDQ(Obs) sleep disturbance score, MARCH-PFIC Phase 3 study; format: in vivo, human; conditions: All-PFIC; FIG. 27D
Description: The terms “EDQ(Obs)”, “EDQ(Pt)”, and “EDQ” as used herein, refer to Exploratory Diary Questionnaire that are used to assess pruritus in children under the age of 18 or adults of at least 18 years of age. EDQ is a caregiver/patient reported outcome measure administered as a twice daily electronic diary. EDQ contained a question about sleep related to pruritus: “because of itch, my child had trouble staying asleep. 1—Never, 2—Rarely, 3—ometimes, 4—Often, or 5—Almost Always.” Caregivers for all subjects aged <9 years completed the Observer instrument: EDQ(Obs). Subjects ≥9 years of age completed the patient instrument: EDQ(Pt). EDQ includes questions on sleep disturbances related to pruritus.
Exploratory Diary Questionnaire. Pruritus was assessed using the EDQ caregiver/patient reported outcome measure administered as a twice daily electronic diary. […] Pruritus was assessed and recorded twice daily by subjects or caregivers, via EDQ, beginning with the day after the screening visit and every day throughout the duration of the study, as described in Table 2.
Methods: Participants were randomized to receive MRX 570 μg/kg BID or placebo (PBO) (FIG. 27A). The primary analysis evaluated pruritus as assessed by the caregiver using ItchRO(Obs) 0-4 scale; as well as by physician using the Clinician Scratch Scale (CSS). Sleep was assessed using the Exploratory Diary Questionnaire (Observer) (EDQ[Obs]). […]

[3] = All PFIC cohort, Weeks 15-26, FIG. 6B
[4] = BSEP deficiency cohort, FIG. 7A
[5] = BSEP deficiency cohort, FIG. 7B
[6] = BSEP deficiency cohort, FIG. 17A
[7] = BSEP deficiency cohort, Weeks 15-26, FIG. 6A

CCCCC1(CCCC)CS(=O)(=O)c2ccc(N(C)C)cc2[C@@H](c2ccc(OCc3ccc(C[N+]45CCN(CC4)CC5)cc3)cc2)[C@H]1O [maralixibat, 1-(4-((4-((4R,5R)-3,3-dibutyl-7-(dimethylamino)-4-hydroxy-1,1-dioxido-2,3,4,5-tetrahydrobenzo[b]thiepin-5-yl)phenoxy)methyl)benzyl)-1,4-diazabicyclo[2.2.2]octan-1-ium]
difference from the placebo group, evening ItchRO[Obs] score ([1]; All PFIC cohort, FIG. 8A): 1.157 point
reduction from baseline in pruritus evening ItchRO[Obs] score ([1]; All PFIC cohort, FIG. 8A): 1.8 points
difference from the placebo group, maximum daily ItchRO[Obs] score ([1]; All PFIC cohort, FIG. 8B): 1.198 point
reduction from baseline in maximum pruritus daily ItchRO[Obs] score ([1]; All PFIC cohort, FIG. 8B): 1.9 points
percentage of pruritus response (ItchRO(Obs) responders) ([1]; All PFIC cohort, FIG. 14A): 63.6%
difference from the placebo group, morning ItchRO[Obs] score [1, 3]: 1.20 point
reduction from baseline in pruritus morning ItchRO[Obs] score [1, 3]: 1.8 points
median proportion of reported days with an ItchRO(Obs) score of 0-1 ([1]; All-PFIC (MRX n = 33), Weeks 15-26): 95%
difference from the placebo group, evening ItchRO[Obs] score [1, 4]: 1.111 point
reduction from baseline in pruritus evening ItchRO[Obs] score [1, 4]: 1.7 points
difference from the placebo group, maximum daily ItchRO[Obs] score [1, 5]: 1.130 point
reduction from baseline in maximum pruritus daily ItchRO[Obs] score [1, 5]: 1.8 points
difference vs placebo in proportion of pruritus responders (assessments ≤1) ([1]; BSEP deficiency cohort, FIG. 16A): 0.344
difference vs placebo in proportion of pruritus responders (assessments ≤1 or decrease ≥1) [1, 6]: 0.398
proportion of pruritus responders: proportion of assessments ≤1 or decrease ≥1 [1, 6]: over 0.7
percentage of pruritus response (ItchRO(Obs) responders) ([1]; BSEP deficiency cohort, FIG. 13A): 57.1%
difference from the placebo group, morning ItchRO[Obs] score [1, 7]: 1.089 point
reduction from baseline in pruritus morning ItchRO[Obs] score [1, 7]: 1.7 points
proportion of pruritus responders: proportion of assessments ≤1 ([1]; BSEP deficiency cohort, morning and evening, FIG. 16A): over 0.6
difference from the placebo group, morning ItchRO[Obs] score ([1]; FIC1 (PFIC 1) cohort, FIG. 9A): 1.136 point
reduction from baseline in pruritus morning ItchRO[Obs] score ([1]; FIC1 (PFIC 1) cohort, FIG. 9A): 1.4 points
improvements in pruritus (weekly ItchRO(Obs) score) ([1]; FIC1, MDR3, TJP2, MYO5B cohorts, FIG. 33A-B): statistically significant and clinically meaningful improvements
difference from the placebo group, morning ItchRO[Obs] score ([1]; MDR3 (PFIC 3) cohort, FIG. 9B): 0.594 point
reduction from baseline in pruritus morning ItchRO[Obs] score ([1]; MDR3 (PFIC 3) cohort, FIG. 9B): 1.8 points
difference vs placebo in proportion of pruritus responders (assessments ≤1) ([1]; PFIC cohort, Baseline to Week 26, FIG. 16B, 27B): 0.345
difference vs placebo in proportion of pruritus responders (assessments ≤1 or decrease ≥1) ([1]; PFIC cohort, FIG. 17B): 0.380
proportion of pruritus responders: proportion of assessments ≤1 or decrease ≥1 ([1]; PFIC cohort, FIG. 17B): over 0.7
response to treatment ([1]; PFIC patients post surgery (full population)): significant response
improvements in pruritus severity ([1]; full-study population, FIG. 35A): statistically significant and clinically meaningful improvements
improvements in pruritus ([1]; patients with no-variant found, FIG. 35C): demonstrated improvements
pruritus change in individual t-BSEP patients (morning ItchRO(Obs)) ([1]; t-BSEP (truncated PFIC2) patients, Baseline to Week 26, FIG. 41D): limited improvement in pruritus
CFB in sleep (EDQ(Obs)), difference MRX vs PBO, delta [95% CI] [2]: significant improvements

From patent publication US20240173317A1, “METHODS FOR TREATING PROGRESSIVE FAMILIAL INTRAHEPATIC CHOLESTASIS” (MIRUM PHARMACEUTICALS, INC., priority 2022, published 2024)
